Tests used:
Type in all cases: in vivo
[1] = tested on: Polygonum convolvulus (POLCO), Brachiaria plantaginea (BRAPL), Commelina benghalensis (COMBE), Digitaria sanguinalis (DIGSA); test: Glasshouse herbicide efficacy of mesotrione with adjuvants (Example 2); settings: mesotrione SC, mean over 30 and 60 g/ha, three replicates, four weed species; 21 days after application; adjuvants 0.2% v/v, Tween 20 0.5% v/v; 200 l/ha
Description: (§1) Mesotrione was added to the spray tank as a standard SC (suspension concentrate) formulation.
The four weed species were Polygonum convolvulus (POLCO; growth stage 13-15), Brachiaria plantaginea (BRAPL; growth stage 13-21), Commelina benghalensis (COMBE; growth stage 12-13) and Digitaria sanguinalis (DIGSA; growth stage 13-14).
Each spray test was replicated three times. […] The results shown in Table 2 below are mean averages over the two rates of mesotrione, the three replicates and the four weed species.

[2] = tested on: Polygonum convolvulus (POLCO), Brachiaria plantaginea (BRAPL), Commelina benghalensis (COMBE), Digitaria sanguinalis (DIGSA); test: Glasshouse herbicide efficacy of mesotrione with adjuvants (Example 9); settings: mesotrione SC, mean over 30 and 60 g/ha, three replicates, four weed species; 21 days after application; adjuvants 0.2% v/v, Tween 20 0.5% v/v; 200 l/ha
Description: The efficacy of Adjuvant 5 as an adjuvant for the herbicide mesotrione was tested in a glasshouse against four weed species. Mesotrione was added to the spray tank as a standard SC (suspension concentrate) formulation.
(§2) The spray tests were also carried out using mesotrione in conjunction with Adjuvant 5, Adjuvant 6 or the well-known adjuvant Tween® 20. […] The four weed species were Polygonum convolvulus (POLCO), Brachiaria plantaginea (BRAPL), Commelina benghalensis (COMBE) and Digitaria sanguinalis (DIGSA).
Each spray test was replicated three times. […] The results shown in Table 9 below are mean averages over the two rates of mesotrione, the three replicates and the four weed species.

[3] = tested on: Polygonum convolvulus (POLCO), Brachiaria plantaginea (BRAPL), Commelina benghalensis (COMBE), Digitaria sanguinalis (DIGSA); test: Glasshouse herbicide efficacy of mesotrione with adjuvants (Example 6); settings: mesotrione SC, mean over 30 and 60 g/ha, three replicates, four weed species; 21 days after application; Adjuvant 2 0.2% v/v, Tween 20 0.5% v/v; 200 l/ha
Description: as §1
as §2, with “2” for “5, Adjuvant 6”, “(DIGSA). Each spray test was replicated three times. […] The results shown in Table 6 below are mean averages over the two rates of mesotrione, the three replicates and the four weed species.” for “(DIGSA).”

[4] = tested on: Abutilon theophrasti (ABUTH), Chenopodium album (CHEAL), Digitaria sanguinalis (DIGSA), Setaria viridis (SETVI); test: Glasshouse herbicide efficacy of nicosulfuron with adjuvants (Example 1); settings: nicosulfuron WG, mean over 30 and 60 g/ha, three replicates, four weed species; 21 days after application; adjuvants 0.2% v/v, Atplus 411F 0.5% v/v; 200 l/ha
Description: (§3) Nicosulfuron was added to the spray tank as a standard WG (water dispersible granule) formulation.
Each spray test was replicated three times. […] The results shown in Table 1 below are mean averages over the two rates of nicosulfuron, the three replicates and the four weed species.

[5] = tested on: Abutilon theophrasti (ABUTH), Chenopodium album (CHEAL), Digitaria sanguinalis (DIGSA), Setaria viridis (SETVI); test: Glasshouse herbicide efficacy of nicosulfuron with adjuvants (Example 5); settings: nicosulfuron WG, mean over 30 and 60 g/ha, three replicates, four weed species; 21 days after application; Adjuvant 2 0.2% v/v, Atplus 411F 0.5% v/v; 200 l/ha
Description: as §3
The spray tests were also carried out using nicosulfuron in conjunction with Adjuvant 2 or the commercially available tank-mix adjuvant, Atplus 411F®. […] The weed species were Abutilon theophrasti (ABUTH), Chenopodium album (CHEAL), Digitaria sanguinalis (DIGSA) and Setaria viridis (SETVI).
Each spray test was replicated three times. […] The results shown in Table 5 below are mean averages over the two rates of nicosulfuron, the three replicates and the four weed species.

[6] = tested on: Alopecurus myosuroides (ALOMY), Avena fatua (AVEFA), Lolium perenne (LOLPE), Setaria viridis (SETVI); test: Glasshouse herbicide efficacy of pinoxaden with adjuvants (Example 10); settings: pinoxaden EC, mean over 7.5 and 15 g/ha, three replicates, four weed species; 21 days after application; adjuvants 0.2% v/v; 200 l/ha
Description: The efficacy of Adjuvant 5 as an adjuvant for the herbicide pinoxaden was tested in a glasshouse against four weed species. Pinoxaden was added to the spray tank as a standard EC (emulsifiable concentrate) formulation.
The spray tests were also carried out using pinoxaden in conjunction with Adjuvant 5, Adjuvant 6 or the standard adjuvant tris(2-ethylhexyl) phosphate. […] The weed species were Alopecurus myosuroides (ALOMY), Avena fatua (AVEFA), Lolium perenne (LOLPE) and Setaria viridis (SETVI). Each spray test was replicated three times. […] The results shown in Table 10 below are mean averages over the two rates of pinoxaden, the three replicates and the four weed species.

[7] = tested on: Alopecurus myosuroides (ALOMY), Avena fatua (AVEFA), Lolium perenne (LOLPE), Setaria viridis (SETVI); test: Glasshouse herbicide efficacy of pinoxaden with adjuvants (Example 3); settings: pinoxaden EC, mean over 7.5 and 15 g/ha, three replicates, four weed species; 21 days after application; adjuvants 0.2% v/v; 200 l/ha
Description: (§4) Pinoxaden was added to the spray tank as a standard EC (emulsifiable concentrate) formulation.
Each spray test was replicated three times. […] The results shown in Table 3 below are mean averages over the two rates of pinoxaden, the three replicates and the four weed species.

[8] = tested on: Alopecurus myosuroides (ALOMY), Avena fatua (AVEFA), Lolium perenne (LOLPE), Setaria viridis (SETVI); test: Glasshouse herbicide efficacy of pinoxaden with adjuvants (Example 7); settings: pinoxaden EC, mean over 7.5 and 15 g/ha, three replicates, four weed species; 21 days after application; adjuvants 0.2% v/v; 200 l/ha
Description: as §4
The spray tests were also carried out using pinoxaden in conjunction with Adjuvant 2 or the standard adjuvant tris(2-ethylhexyl) phosphate. […] The weed species were Alopecurus myosuroides (ALOMY), Avena fatua (AVEFA); Lolium perenne (LOLPE) and Setaria viridis (SETVI).
Each spray test was replicated three times. […] The results shown in Table 7 below are mean averages over the two rates of pinoxaden, the three replicates and the four weed species.

## CS(=O)(=O)c1ccc(C(=O)C2C(=O)CCCC2=O)c([N+](=O)[O-])c1 [Mesotrione, mesotrione]
[1]
  Mean across species % phytotoxicity (mean percentage kill, leaf area killed): 25.6%
[2]
  Mean across species % phytotoxicity (mean percentage kill, leaf area killed): 27.5%
[3]
  Mean across species % phytotoxicity (mean percentage kill, leaf area killed): 17.8%

## COc1cc(OC)nc(NC(=O)NS(=O)(=O)c2ncccc2C(=O)N(C)C)n1 [Nicosulfuron, nicosulfuron]
[4]
  Mean across species % phytotoxicity (mean percentage kill, leaf area killed): 34.4%
[5]
  Mean across species % phytotoxicity (mean percentage kill, leaf area killed): 64.5%

## CCc1cc(C)cc(CC)c1-c1c(OC(=O)C(C)(C)C)n2n(c1=O)CCOCC2 [Pinoxaden, pinoxaden]
[6]
  Mean across species % phytotoxicity (mean percentage kill, leaf area killed): 7.5%
[7]
  Mean across species % phytotoxicity (mean percentage kill, leaf area killed): 3.6%
[8]
  Mean across species % phytotoxicity (mean percentage kill, leaf area killed): 3.4%
